From article PMC10968680, “FHND004 inhibits malignant proliferation of multiple myeloma by targeting PDZ-binding kinase in MAPK pathway” (Aging (Albany NY), 2024)
Residue numbers refer to the chain shown, from its start.

Legend:
PDZ-binding kinase (PBK) [1] = molecular target: T1, PDZ-binding kinase (PBK) (Homo sapiens, UniProt Q96KB5, D125A/N124A); assay: microscale thermophoresis (MST)
T1 sequence (Q96KB5 1-322 N124A/D125A): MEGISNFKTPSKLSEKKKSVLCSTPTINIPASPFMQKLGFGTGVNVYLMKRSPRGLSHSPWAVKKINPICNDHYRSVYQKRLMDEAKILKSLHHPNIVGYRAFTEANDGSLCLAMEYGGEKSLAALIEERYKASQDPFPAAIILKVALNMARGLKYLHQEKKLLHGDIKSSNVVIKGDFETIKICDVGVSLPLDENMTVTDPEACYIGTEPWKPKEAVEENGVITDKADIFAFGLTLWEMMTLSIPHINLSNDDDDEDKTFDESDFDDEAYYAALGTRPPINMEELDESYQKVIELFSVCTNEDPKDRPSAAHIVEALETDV

PDZ-binding kinase (PBK) [2] = molecular target: T2, PDZ-binding kinase (PBK) (Homo sapiens, UniProt Q96KB5); assay: microscale thermophoresis (MST) with RED-NHS labelled purified PBK
T2 sequence (Q96KB5 1-322): T1 sequence (Q96KB5 1-322 N124A/D125A) with A124N, A125D

Kd (PDZ-binding kinase (PBK) [1]): 99.5 µM | Kd (PDZ-binding kinase (PBK) [2]): 3.1 µM
Compound: C=CC(=O)Nc1cc(Nc2nccc(-c3cn4c5c(cccc35)CCC4)n2)c(OC)cc1N(C)CCN(C)C [FHND004]
